Data on 63 compounds can be found in a melting point compilation (Tetko et al.; mined from patent text by program, amines drawn as free bases though some values may be those of a salt).

In the case of `CC(C)(C)OC(=O)N1CCN(C(=O)Cn2sc3ccccc3c2=O)CC1`, the melting point (as a rule, the temperature, or range, at which the solid turns liquid) lay within 120 to 122 °C. The same measure for `CC(C)OC(=O)c1cc(-n2c(=O)[nH]c3c(c2=O)CCCC3)c(F)cc1Cl`: 203 to 205 °C; for `CC(Oc1ccc(-c2ccc(Cl)cc2)cc1)(C(N)=O)C(F)(F)F` (stereo not drawn): 141 to 142 °C. As for `Cc1cc2c(c(C)c1S(=O)(=O)C[N+](=O)[O-])CCCS2(=O)=O`, the figure is 168 to 170 °C; as for `CC(C)(c1ccc(N)cc1)c1ccc(N)cc1`, 130 to 132 °C; as for `COC(=O)c1cc(=O)c2ccccc2o1`, 120 to 122 °C. Turning to `COC(=O)CNc1cc(-c2c3ccccc3c(Br)c3sc(C)c(C)c23)cc(Br)c1OC`, the melting point lay in the range of 194 to 198 °C.

On to `OCCN1C2CCC1CC(c1ccc3ccccc3c1)C2` (stereo not drawn), for which the melting point is 84 to 88 °C. The same measure for `CCOC(=O)N1CCN(c2ccc(-n3cnn(C(CC)C(O)c4ccc(Cl)cc4)c3=O)cn2)CC1` (stereo not drawn): 196 °C. The compound `NC(=O)COc1ncc(Cl)c(N)c1Cl` yielded a melting point of 192 to 193 °C.

As for `CSc1ncnn1C[C@]1(c2ccc(F)c(F)c2)O[C@@H]1c1ccccc1Cl` (relative stereo), the melting point lay within 79 to 81 °C. Consider `COc1ccc2nc3cc(OC)c(=O)c(Br)c-3sc2c1`, for which the melting point was 260 to 261 °C. On to `Clc1ccc2c3c(cnc2c1)OCCN3`, for which the melting point is 219 to 220 °C. Consider `Cc1cccc(-n2cc(CC(=O)O)c(-c3ccc(Cl)cc3)n2)c1`, for which the melting point was 129 to 130 °C. Take `NS(=O)(=O)c1ccccc1C1=NOCCO1`: the melting point lay in the range of 131 to 133 °C.

With `COC(=O)C=Cc1ccc(C(C)(C)C)cc1`, the melting point was found to be 35 °C. The same measure for `C=C(C)C(C(=O)OCC(Cl)(Cl)Cl)N1C(=O)C(NC(=O)Cc2ccccc2)C1SSc1nc2ccccc2s1` (stereo not drawn): 133 to 134 °C; for `CN1CCN(c2ccnc3c(NC(=O)c4c(Cl)cccc4Cl)ccc(Cl)c23)C1=O`: 259 to 263 °C. In the case of `c1ccc(COc2cccc(-n3cnnn3)c2)cc1`, the melting point lay within 85 to 86 °C. On to `COc1ccc(-c2nc(N)sc2-c2ccnc(N)c2)cc1`, for which the melting point lay in the range of 251 to 254 °C. Turning to `COc1ccc2nc(-c3ccc(Cl)cc3)cn2c1`, the melting point was in the range of 148 to 149 °C. The same measure for `Cc1nc(-c2cc(Cl)ccc2Cl)n2c1nnc1ccc(F)cc12`: 165 to 168 °C; for `Nc1ccccc1NC(=O)c1ccc(CNC(=O)COc2cccnc2)cc1`: 154 to 155 °C; for `CS(=O)(=O)c1ccc(-c2cc(Br)nc(C(F)(F)F)c2-c2ccc(F)cc2)cc1`: 188 to 189 °C. Compound `CCOC(=O)C(C)(C)c1ccc(N[C@@H](CCC(N)=O)C(=O)O)cc1` registered a melting point of 147 to 148 °C. The same measure for `Nc1sc(-c2ccoc2)c(CN(C2CCCCC2)C2CCCCC2)c1C(=O)c1ccc(Cl)cc1`: 132 to 135 °C; for `Nc1c(C(=O)c2cccc(Cl)c2)cc(Br)cc1[N+](=O)[O-]`: 134 °C; for `COC(=O)C1Oc2ccc(Cl)cc2C(C)(c2ccccc2)O1` (stereo not drawn): 114 to 115 °C. Turning to `Cn1ccc2cc(NC(=O)/C=C/c3ccc(C(C)(C)C)cc3)ccc21`, the melting point was determined as 171 °C. With `CCCCCS(=O)(=O)NC(=O)CCc1ccc(OCCOC)cc1OCc1ccc(Cl)cc1Cl`, the melting point was 107 to 108 °C.

`CC(C)(C)OC(=O)c1cc(N2CCOCC2)cc([N+](=O)[O-])c1`: the melting point lay in the range of 116 to 118 °C. As to `CCOC(=O)C(=NO)c1cccc(Br)c1`, the melting point was 113 to 114 °C. `Cc1cc([N+](=O)[O-])ccc1NC(=O)C1=C(O)N(C)S(=O)(=O)c2cscc21` gave a melting point of 186 to 188 °C. For the compound `COc1ccc(S(=O)(=O)N2C(=O)[C@@](c3ccccc3OC)(N3C[C@H](OC(N)=O)C[C@H]3C(=O)N(C)C)c3cc(Cl)ccc32)c(OC)c1`, the melting point is 115 to 125 °C. The same measure for `CCCCCc1oc(-c2ccc(Cl)cc2)nc1CC(=O)O`: 136 to 137 °C; for `CCCOC(=O)Nc1nc2ccccc2c2c1nc(COCC)n2CC(C)(C)NS(C)(=O)=O`: 125 to 127 °C. With `CC(=O)c1ccc2c(c1)C(n1ccccc1=O)C(O)C(C)(C)O2` (stereo not drawn), the melting point came to 260 °C. As for `Cc1ccc2c(c1)CC(=O)c1cc(C)ccc1O2`, the melting point was in the range of 62 to 62.5 °C. For `C=CCNc1cc(C)nc2c(-c3ccccc3)n[nH]c12`, the melting point was 92 to 105 °C. As for `CCOC(=O)c1cn(C(C)c2c(F)cccc2F)nn1` (stereo not drawn), the melting point lay in the range of 118 to 121 °C.

As for `CCOC(=O)c1ncn2c1[C@@H]1CCN1C(=O)c1cc(F)ccc1-2`, the melting point is 226 to 227 °C. `CC(=O)c1cccc(-c2cncc(OC3SCC(O)C(O)C3O)c2)c1` (stereo not drawn) returned a melting point of 159 to 163 °C. Regarding `O=c1[nH]c(N2CCOCC2)nc2c(N3CCCCCC3)nc(N3CCOCC3)cc12`, the melting point came to 240 °C. As for `Clc1ccccc1-c1nc(-c2ccccn2)no1`, the figure is 93 to 94 °C; as for `CNc1nc(-c2cccc(N)c2)cs1`, 118 to 121 °C.

`O=C(C=Cc1ccc(C(F)(F)F)cc1)N1CCCCC1CO` (stereo not drawn): the melting point is 139 to 140 °C.

`CC(C)C1CNCc2cccc3[nH]c(=O)n1c23` (stereo not drawn) displayed a melting point of 167 °C. On to `CCCCc1ccc2c(c1)C(=O)N(c1ccc3c(ccn3C)c1)C2`, for which the melting point lay within 167 to 168 °C.

For the compound `CNC(=O)Nc1cc(CC(C)C)ccc1-c1ccccc1S(=O)(=O)Nc1onc(C)c1C`, the melting point was 172 to 174 °C. `CCC(CC)c1ccc(Cl)c2nc3n(c12)CCCCN3c1cc(C)cc2c1ncn2C`: the melting point fell in the range of 259 to 260 °C. In turn, `N#Cc1ccc(-c2ccc(O)c(C=O)c2)cc1` yielded a melting point of 144 °C.

`Nc1nc(-c2ccc(NC(=O)CN(Cc3ccccc3)S(=O)(=O)N3CCOCC3)cc2)cs1` yielded a melting point of 193 to 194 °C.

As for `Cc1sc(-c2ccccc2)nc1COc1ccc(C=O)cn1`, the melting point was 120 to 121 °C. Consider `CCCCCCCCCOc1cc(C(=O)Nc2c(Cl)cncc2Cl)ccc1OC`, for which the melting point lay within 151 to 153 °C. `COC(=O)c1ccc(-c2ccc(-c3ccc4c(c3)C(C)(C)CCC4(C)C)s2)cc1` showed a melting point of 126 to 129 °C. Consider `CC1(C)CCC(=O)Nc2ccc(Nc3ncc(Cl)c(Nc4ccccc4-c4ncccn4)n3)cc21`, for which the melting point is 186 °C. For the compound `O=C(OCc1ccccc1)N1CCC(O)(CNc2ccc(Cl)c(Cl)c2)CC1`, the melting point lay in the range of 128 to 130 °C.

`CS(=O)(=O)c1ccc(C(CC2CCCC2)C(=O)Nc2ccncn2)cc1[N+](=O)[O-]` (stereo not drawn) displayed a melting point of 91 to 95 °C.

The compound `CC12CCC3c4ccc(C(=O)O)cc4CCC3C1CCC2C(=O)CCc1ccccc1` (stereo not drawn) yielded a melting point of 181 to 183 °C. For the compound `O=S(=O)(c1cc(Br)[nH]c1-c1ccc(Cl)cc1)C(F)(F)F`, the melting point lay within 73 to 76 °C.

In the case of `Clc1ccc(Cn2cc(C3(Cn4ccnc4)CCCC3)c3ccccc32)cc1`, the melting point lay within 91 to 92 °C. For `Cc1cccc(-c2[nH]c(C3CC3)nc2-c2cccc(-c3ccc(C(=O)NC4CCOCC4)cc3)c2)n1`, the melting point fell in the range of 127 to 128 °C.

As to `N#Cc1cn2cc(Br)nc(N3CCOCC3)c2n1`, the melting point was determined as 265 °C.
